Experiment [1] has as its target Protein kinase C iota type (Homo sapiens) (UniProt P41743). The experiment in a line: Inhibition of human recombinant PKCi at 15 nM in presence of ATP by radiometric assay relative to control.
Experiment [2] addresses Ribosomal protein S6 kinase alpha-2 (Homo sapiens) (UniProt Q15349). The experiment in a line: Inhibition of human recombinant RSK3 at 15 nM related to control ULK1.
The target in experiment [3] is T1, Serine/threonine-protein kinase ULK1 (Homo sapiens) (UniProt O75385).
T1 sequence (whole entry): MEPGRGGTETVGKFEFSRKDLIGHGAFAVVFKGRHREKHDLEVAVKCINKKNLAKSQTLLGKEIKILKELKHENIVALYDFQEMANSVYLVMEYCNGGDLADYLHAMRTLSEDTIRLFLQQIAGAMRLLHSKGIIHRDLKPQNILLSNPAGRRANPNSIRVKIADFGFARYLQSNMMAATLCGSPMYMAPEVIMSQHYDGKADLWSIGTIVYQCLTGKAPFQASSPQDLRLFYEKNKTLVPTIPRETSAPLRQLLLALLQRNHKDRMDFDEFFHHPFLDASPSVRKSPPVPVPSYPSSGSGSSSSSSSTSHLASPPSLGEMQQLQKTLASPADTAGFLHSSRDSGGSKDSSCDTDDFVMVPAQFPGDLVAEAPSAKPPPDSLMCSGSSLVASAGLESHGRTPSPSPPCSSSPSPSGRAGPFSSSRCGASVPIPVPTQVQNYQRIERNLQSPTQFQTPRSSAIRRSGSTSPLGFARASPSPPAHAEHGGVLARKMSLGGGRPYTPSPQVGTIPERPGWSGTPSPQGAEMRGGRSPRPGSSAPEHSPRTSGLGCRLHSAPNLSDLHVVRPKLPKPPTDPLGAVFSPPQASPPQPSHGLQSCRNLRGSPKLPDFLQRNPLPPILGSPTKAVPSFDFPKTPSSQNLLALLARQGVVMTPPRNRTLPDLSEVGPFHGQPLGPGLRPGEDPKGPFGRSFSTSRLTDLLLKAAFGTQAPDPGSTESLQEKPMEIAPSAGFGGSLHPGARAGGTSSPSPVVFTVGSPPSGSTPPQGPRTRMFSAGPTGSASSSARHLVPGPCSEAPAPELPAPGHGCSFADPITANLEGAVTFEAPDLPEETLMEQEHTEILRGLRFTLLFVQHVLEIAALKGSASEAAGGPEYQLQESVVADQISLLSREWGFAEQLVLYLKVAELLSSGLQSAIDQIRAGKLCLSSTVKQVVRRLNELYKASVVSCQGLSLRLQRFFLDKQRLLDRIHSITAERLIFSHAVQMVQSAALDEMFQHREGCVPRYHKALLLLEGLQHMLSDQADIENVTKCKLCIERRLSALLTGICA
The experiment in a line: Inhibition of human recombinant ULK1 at 15 nM in presence of ATP by radiometric assay relative to control.

The target of experiment [4] is T2, Serine/threonine-protein kinase 17B (Homo sapiens) (UniProt O94768).
T2 sequence (whole entry): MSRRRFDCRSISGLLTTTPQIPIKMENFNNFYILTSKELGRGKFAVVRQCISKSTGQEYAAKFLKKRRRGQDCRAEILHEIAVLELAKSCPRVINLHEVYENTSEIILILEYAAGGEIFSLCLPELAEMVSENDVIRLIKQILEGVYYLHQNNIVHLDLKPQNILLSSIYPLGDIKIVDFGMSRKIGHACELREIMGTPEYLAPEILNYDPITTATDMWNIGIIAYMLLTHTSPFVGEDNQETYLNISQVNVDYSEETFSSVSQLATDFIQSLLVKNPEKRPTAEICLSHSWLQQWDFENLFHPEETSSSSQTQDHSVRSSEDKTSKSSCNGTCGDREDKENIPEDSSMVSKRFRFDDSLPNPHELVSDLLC
Briefly: Inhibition of human recombinant DRAK2 at 15 nM related to control ULK1.

For experiment [5], the target named is Serine/threonine-protein kinase PAK 6 (Homo sapiens) (UniProt Q9NQU5). Briefly: Inhibition of human recombinant PAK6 at 40 nM related to control ULK1.
The target in experiment [6] is Rho-associated protein kinase 2 (Homo sapiens) (UniProt O75116). The experiment in a line: Inhibition of human recombinant ROCK2 at 500 nM in presence of ATP by radiometric assay relative to control.
In experiment [7] the target is T3, Tribbles homolog 2 (Homo sapiens) (UniProt Q92519).
T3 sequence (whole entry): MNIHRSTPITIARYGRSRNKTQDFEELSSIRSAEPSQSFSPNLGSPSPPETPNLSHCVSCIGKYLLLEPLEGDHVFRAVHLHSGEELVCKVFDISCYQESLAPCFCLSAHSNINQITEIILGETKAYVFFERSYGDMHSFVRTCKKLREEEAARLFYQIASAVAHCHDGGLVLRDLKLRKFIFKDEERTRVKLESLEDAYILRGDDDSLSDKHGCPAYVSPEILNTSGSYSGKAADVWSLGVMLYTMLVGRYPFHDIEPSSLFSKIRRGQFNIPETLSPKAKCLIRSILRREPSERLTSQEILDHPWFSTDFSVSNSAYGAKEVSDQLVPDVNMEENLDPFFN
The experiment in a line: Inhibition of human recombinant Trb2 at 500 nM in presence of ATP by radiometric assay relative to control.

Serine/threonine-protein kinase PAK 6 (Homo sapiens), sequence (Q9NQU5 whole entry, looked up): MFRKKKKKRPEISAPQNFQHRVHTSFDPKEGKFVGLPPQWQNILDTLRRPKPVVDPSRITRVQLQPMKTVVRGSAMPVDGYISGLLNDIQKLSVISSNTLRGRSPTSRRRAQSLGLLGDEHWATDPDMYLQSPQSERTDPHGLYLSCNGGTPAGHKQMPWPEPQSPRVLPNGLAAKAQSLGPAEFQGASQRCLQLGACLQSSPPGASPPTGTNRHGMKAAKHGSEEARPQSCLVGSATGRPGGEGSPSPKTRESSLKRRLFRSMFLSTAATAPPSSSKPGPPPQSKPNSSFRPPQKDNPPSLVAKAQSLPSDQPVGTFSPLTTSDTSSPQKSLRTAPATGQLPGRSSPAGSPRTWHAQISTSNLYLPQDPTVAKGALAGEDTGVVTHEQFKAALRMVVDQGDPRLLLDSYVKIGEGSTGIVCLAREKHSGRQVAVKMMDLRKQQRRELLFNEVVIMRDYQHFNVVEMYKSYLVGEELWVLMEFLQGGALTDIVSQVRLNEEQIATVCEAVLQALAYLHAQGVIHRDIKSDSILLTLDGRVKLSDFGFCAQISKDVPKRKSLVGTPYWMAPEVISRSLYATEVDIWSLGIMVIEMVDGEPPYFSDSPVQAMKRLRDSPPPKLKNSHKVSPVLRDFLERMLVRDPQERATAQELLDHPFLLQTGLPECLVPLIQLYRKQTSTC
Protein kinase C iota type (Homo sapiens), sequence (P41743 whole entry, looked up): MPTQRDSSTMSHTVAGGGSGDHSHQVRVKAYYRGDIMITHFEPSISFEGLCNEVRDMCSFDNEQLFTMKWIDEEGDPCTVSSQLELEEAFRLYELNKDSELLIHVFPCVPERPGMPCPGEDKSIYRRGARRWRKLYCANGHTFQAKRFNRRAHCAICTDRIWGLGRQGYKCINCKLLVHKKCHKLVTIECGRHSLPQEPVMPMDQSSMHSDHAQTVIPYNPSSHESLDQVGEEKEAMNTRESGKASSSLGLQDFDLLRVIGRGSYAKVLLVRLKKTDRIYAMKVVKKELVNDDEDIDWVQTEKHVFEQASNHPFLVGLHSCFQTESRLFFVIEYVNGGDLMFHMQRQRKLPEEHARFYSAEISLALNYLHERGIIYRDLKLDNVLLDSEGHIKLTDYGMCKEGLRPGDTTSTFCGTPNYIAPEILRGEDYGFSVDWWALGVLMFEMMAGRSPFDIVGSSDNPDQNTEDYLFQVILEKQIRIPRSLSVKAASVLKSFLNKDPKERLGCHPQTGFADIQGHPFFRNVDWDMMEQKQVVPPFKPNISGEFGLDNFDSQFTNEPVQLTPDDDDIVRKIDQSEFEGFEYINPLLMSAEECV
Ribosomal protein S6 kinase alpha-2 (Homo sapiens), sequence (Q15349 whole entry): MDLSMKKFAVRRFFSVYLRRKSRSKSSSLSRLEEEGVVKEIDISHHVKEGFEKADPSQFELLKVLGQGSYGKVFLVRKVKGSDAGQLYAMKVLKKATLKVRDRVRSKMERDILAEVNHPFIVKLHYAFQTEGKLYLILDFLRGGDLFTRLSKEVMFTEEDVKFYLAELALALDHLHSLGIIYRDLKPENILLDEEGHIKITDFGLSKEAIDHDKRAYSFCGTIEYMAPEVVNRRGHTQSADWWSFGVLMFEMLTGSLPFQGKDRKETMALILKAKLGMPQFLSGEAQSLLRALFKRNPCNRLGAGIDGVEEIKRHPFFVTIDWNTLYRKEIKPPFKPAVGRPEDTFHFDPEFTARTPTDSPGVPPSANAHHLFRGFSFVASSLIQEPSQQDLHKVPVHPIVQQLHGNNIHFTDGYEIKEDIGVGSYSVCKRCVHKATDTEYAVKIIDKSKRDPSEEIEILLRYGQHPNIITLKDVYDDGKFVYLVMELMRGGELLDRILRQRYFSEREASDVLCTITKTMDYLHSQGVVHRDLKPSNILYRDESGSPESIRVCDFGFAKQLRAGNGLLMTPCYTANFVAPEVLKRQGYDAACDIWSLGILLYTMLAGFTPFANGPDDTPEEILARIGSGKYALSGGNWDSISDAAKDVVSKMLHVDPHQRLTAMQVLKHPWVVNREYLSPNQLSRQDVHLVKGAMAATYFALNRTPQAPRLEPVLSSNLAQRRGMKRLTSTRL
Rho-associated protein kinase 2 (Homo sapiens), sequence (O75116 whole entry, looked up): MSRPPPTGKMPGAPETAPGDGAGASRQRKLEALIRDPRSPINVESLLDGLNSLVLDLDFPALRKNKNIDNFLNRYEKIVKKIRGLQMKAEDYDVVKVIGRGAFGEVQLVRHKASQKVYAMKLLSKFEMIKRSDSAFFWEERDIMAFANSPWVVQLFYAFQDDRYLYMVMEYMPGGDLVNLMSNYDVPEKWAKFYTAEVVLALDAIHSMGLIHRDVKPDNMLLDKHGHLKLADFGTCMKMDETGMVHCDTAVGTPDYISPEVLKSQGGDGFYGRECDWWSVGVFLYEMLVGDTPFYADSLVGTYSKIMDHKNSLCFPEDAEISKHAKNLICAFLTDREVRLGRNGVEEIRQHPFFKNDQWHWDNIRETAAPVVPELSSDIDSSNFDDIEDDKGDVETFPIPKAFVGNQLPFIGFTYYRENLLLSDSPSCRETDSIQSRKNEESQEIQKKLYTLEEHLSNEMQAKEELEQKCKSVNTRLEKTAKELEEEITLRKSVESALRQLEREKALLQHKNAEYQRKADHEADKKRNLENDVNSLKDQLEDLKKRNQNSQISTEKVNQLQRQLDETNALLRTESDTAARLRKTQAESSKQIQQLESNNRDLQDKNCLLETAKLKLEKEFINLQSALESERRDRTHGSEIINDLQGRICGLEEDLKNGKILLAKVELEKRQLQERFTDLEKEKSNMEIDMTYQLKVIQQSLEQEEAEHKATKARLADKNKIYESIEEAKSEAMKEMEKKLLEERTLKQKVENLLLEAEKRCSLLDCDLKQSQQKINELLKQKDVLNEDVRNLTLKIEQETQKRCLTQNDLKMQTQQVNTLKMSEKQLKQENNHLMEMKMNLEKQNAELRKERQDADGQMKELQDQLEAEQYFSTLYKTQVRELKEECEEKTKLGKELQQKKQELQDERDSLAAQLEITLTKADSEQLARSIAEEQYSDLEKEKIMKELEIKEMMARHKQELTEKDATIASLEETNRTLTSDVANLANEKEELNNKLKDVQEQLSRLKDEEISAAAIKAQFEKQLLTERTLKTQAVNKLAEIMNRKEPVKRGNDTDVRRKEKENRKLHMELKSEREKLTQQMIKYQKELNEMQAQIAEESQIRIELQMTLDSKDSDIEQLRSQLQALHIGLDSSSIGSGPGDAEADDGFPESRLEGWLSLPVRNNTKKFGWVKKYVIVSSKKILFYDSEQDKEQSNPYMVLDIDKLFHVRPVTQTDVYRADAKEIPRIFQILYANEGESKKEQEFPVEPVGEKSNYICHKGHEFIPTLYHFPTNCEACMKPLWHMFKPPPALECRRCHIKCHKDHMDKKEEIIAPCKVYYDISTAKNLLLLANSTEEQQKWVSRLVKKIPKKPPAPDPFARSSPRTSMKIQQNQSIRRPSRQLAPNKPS

Consider `CC(C)[C@H](NC(=O)c1cc(-c2cnn3cc(-c4ccc(OCCN5CCCCC5)cc4)cnc23)cs1)C(F)(F)F`, for which the results for the inhibition in experiment [1] and in experiment [3] were 4% and 88%, respectively. The fold change (FC) in experiment [2] turned out to be 0.03; in experiment [4], 0.78.
Regarding `O=C(N[C@@H](C1CC1)C(F)(F)F)c1cc(-c2cnn3cc(-c4ccc(F)cc4)cnc23)cs1`, the fold change (FC) in experiment [5] is 0.1.
As for `CNC(=O)c1ccccc1Oc1nc(Nc2cc(OC)c(OC)c(OC)c2)ncc1Br`, the inhibition in experiment [6] and in experiment [7] was 0% in each case.

These data come from ChEMBL document CHEMBL5653631, “A Potent and Selective ULK1 Inhibitor Suppresses Autophagy and Sensitizes Cancer Cells to Nutrient Stress” (iScience, 2018).
